Test results taken from PMC8617627, “Novel DYRK1A Inhibitor Rescues Learning and Memory Deficits in a Mouse Model of Down Syndrome” (Pharmaceuticals, 2021).
Where “and” joins values, the source holds several entries; their conditions need not be identical. Identical values can stand only once.

Experiment: Steady state tissue levels after administration in animal food
Assay type: in vivo, mouse
Text: The highest dose provided a continuous concentration of 1.25 μmol/g both in the liver and in the brain and was used in fear conditioning experiments.
Six control euploid mice of the same genetic background as the Ts65Dn mice were used to perform this analysis; two mice per dose and three doses tested.
Prior to contextual fear conditioning experiments, all mice were exposed for three-days to either food mixture alone or food mixture with added PST-001. In addition, the mice continued to consume these same food preparations during the two days necessary to perform the behavioral testing. […] Comparisons between group means were done with Two-way factorial ANOVA, and Fisher protected least significant difference (PLSD) post hoc test was performed for all significant ANOVA (using Statistica version 13, Tibco Software, Palo Alto, CA, USA).

## COc1ccc2sc(-c3cncc(NC(C)=O)c3)nc2c1 [PST-001, N-(5-(5-Methoxybenzo[d]thiazol-2-yl)pyridin-3-yl)acetamide]
100 mg PST-001/kg powdered food
  continuous (steady state) concentration in the brain: 1.25 µmol/g
twice-a-day administration in the animal food of 10 mg/kg
  steady state brain concentration: 150 ng/mL
twice-a-day administration in the animal food of 10 mg/kg, 10 mg/kg
  steady state plasma level: 76 ng/mL and 0.25 μM
